Assays:
[1] = target: T1, progesterone receptor (Oryctolagus cuniculus, UniProt P06186); settings: rabbit model, scale of 0-4; cited from earlier work
T1 construct: effects of compounds at the progesterone receptor using a rabbit model; from tissue; host or cells: live rabbit (in vivo)
T1 sequence (P06186 1-930): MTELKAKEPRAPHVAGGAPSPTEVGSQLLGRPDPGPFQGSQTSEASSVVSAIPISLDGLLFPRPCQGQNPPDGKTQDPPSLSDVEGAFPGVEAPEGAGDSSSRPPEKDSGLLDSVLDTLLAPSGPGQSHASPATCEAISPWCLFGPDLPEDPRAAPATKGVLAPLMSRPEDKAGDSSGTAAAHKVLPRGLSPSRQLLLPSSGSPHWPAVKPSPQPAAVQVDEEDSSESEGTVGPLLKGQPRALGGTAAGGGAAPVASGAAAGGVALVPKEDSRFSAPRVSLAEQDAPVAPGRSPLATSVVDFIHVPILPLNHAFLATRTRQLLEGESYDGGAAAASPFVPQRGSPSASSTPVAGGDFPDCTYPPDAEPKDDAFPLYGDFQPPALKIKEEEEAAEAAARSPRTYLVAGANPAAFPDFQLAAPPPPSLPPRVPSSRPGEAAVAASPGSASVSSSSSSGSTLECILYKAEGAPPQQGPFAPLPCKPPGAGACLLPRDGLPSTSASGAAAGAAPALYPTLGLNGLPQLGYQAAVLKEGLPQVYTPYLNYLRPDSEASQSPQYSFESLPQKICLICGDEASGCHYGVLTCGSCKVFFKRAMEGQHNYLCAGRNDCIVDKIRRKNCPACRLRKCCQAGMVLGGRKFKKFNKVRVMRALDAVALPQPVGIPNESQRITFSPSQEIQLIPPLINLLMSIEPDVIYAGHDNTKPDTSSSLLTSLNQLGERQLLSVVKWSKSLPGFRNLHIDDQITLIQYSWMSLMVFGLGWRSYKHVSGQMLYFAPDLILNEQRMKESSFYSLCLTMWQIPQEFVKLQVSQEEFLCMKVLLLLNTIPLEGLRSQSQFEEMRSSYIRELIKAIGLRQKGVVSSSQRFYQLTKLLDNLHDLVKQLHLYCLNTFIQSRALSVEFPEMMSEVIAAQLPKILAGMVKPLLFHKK

[2] = test system: total testosterone levels; assay: Phase II study of J867: total testosterone levels over 12 weeks; assay type: in vivo, human (female subjects); settings: for mean testosterone concentration increase over the treatment period: female subjects, 12 week treatment, change from baseline
Procedure: (§1) The effect of SPRMs on testosterone levels and SHBG levels was studied using various doses of J867 over three months. The study was a phase II, multi-center, randomized, double blind, parallel group study of J867 at doses of 5 mg, 10 mg, and 25 mg once a day (QD)compared to placebo. Approximately 120 female subjects between the ages of 18 and 49 were enrolled in the study and randomly assigned to one of the four dosing groups above. During the 12 week study, testosterone and SHBG were measured at screening visits during weeks 2, 4, 8, and 12 of the study.
FIG. 1 is a graph showing total testosterone levels as a function of time during the study. […] Testosterone concentrations were relatively constant for the group receiving placebo. […] Over the treatment period, the mean testosterone concentrations for the 5 mg QD group increased approximately 7-15 ng/dL; the mean increase for the 10 mg QD group was approximately 15-21 ng/dL; and the mean concentrations observed following treatment with 25 mg QD increased approximately 16-25 ng/dL.

[3] = test system: sex hormone-binding globulin (SHBG); assay: Phase II study of J867: SHBG levels over 12 weeks; assay type: in vivo, human (female subjects); settings: 12 week treatment
Procedure: as §1
SHBG levels were also measured at weeks 2, 4, 8, and 12 of the study.

SMILES | McPhail score [1] | mean testosterone concentration increase over the treatment period ([2]; 5 mg QD) [ng/dL] | mean testosterone concentration increase over the treatment period ([2]; 10 mg QD) [ng/dL] | mean testosterone concentration increase over the treatment period ([2]; 25 mg QD) [ng/dL] | total testosterone levels (FIG. 1) ([2]; all doses (5, 10, 25 mg QD) compared to placebo) | visit with largest mean increase of testosterone from baseline ([2]; all three dose groups (5, 10, 25 mg QD)) [week] | testosterone concentrations at the end of the study ([2]; all three dose groups, week 12) | mean level of SHBG during treatment ([3]; 5 mg QD) | mean level of SHBG during treatment ([3]; 10 mg QD) | mean level of SHBG during treatment ([3]; 25 mg QD)
CC(=O)[C@H]1CC[C@H]2[C@@H]3CCC4=CC(=O)CC[C@]4(C)[C@H]3CC[C@]12C [progesterone] | 4 |  |  |  |  |  |  |  |  | 
COC[C@]1(OC)CC[C@H]2[C@@H]3CCC4=CC(=O)CCC4=C3[C@@H](c3ccc(/C=N/O)cc3)C[C@@]21C [J867, [4-[17β-Methoxy-17α-(methoxymethyl)-3-oxoestra-4,9-dien-11β-yl]benzaldehyd-(1E)-oxim]] |  | 7 to 15 | 15 to 21 | 16 to 25 | testosterone levels increased with all doses | 2 | still elevated above baseline | remained relatively constant | decreased from baseline | decreased from baseline
CC#C[C@]1(O)CC[C@H]2[C@@H]3CCC4=CC(=O)CCC4=C3[C@@H](c3ccc(N(C)C)cc3)C[C@@]21C [RU486, mifepristone] | less than 0.5 |  |  |  |  |  |  |  |  | 

From patent US20040248860A1, “Use of selective progesterone receptor modulators for the treatment of androgen deficiency” (priority 2002, published 2004)
